Columns and labels:
[1] = test system: anti-M2 human monoclonal antibody Z3G1; format: binding
HuM2e antibody 23K12 = format: binding, human

Substance	Signal (peptides that show specific binding to Z3G1) [1]	Signal (peptides that bind to 23K21 and 8I10) (HuM2e antibody 23K12)	Signal (peptides that bind to Z3G1) [1]
623 (SLLTEVETCIRNEWGCRCNDSSD; epitope peptide) [compound 623]	1992	800	–
299 (SLLTEVGCLCTCV; epitope peptide) [compound 299]	2346	1963	–
616 (SLLTEVETPIRNPWGCRCNDSSD; epitope peptide) [compound 616]	2288	808	–
457 (SLLTEVETPMRNEWGCRCNDSSD; epitope peptide) [compound 457]	2297	1281	–
622 (SLLTEVETPIRMEWGCRCNDSSD; epitope peptide) [compound 622]	2385	805	–
413 (SLLTEVETPIRNEWGCRCNDPSD; epitope peptide) [compound 413]	–	797	2450
641 (SLLTEVETPIRNELGCRCNDSSD; epitope peptide) [compound 641]	2436	765	–
637 (SLLTEVETPIRNENGCRCNDSSD; epitope peptide) [compound 637]	2265	768	–
706 (SLLTEVETPIRNEWGCRCADSSD; epitope peptide) [compound 706]	–	712	2329
230 (CTPIRNEWGSRSNDSSCSLLTEVETC; epitope peptide) [compound 230]	2168	861	–
614 (SLLTEVETVIRNEWGCRCNDSSD; epitope peptide) [compound 614]	2264	810	–
436 (SLLTEVETPI; epitope peptide) [compound 436]	–	1084	2465
587 (SLLTEVETPIRCEWGCRCNDSSD; epitope peptide) [compound 587]	1956	850	–
368 (SLLTEVETPIRNEWG; epitope peptide) [compound 368]	–	1486	2429
476 (CSLLTEVGCSCLCEV; epitope peptide) [compound 476]	–	1206	1680
334 (CSLLTEVGMSLCTEV; epitope peptide) [compound 334]	–	1682	2857
677 (SLLTEVETPIQNEWGCRCNDSSD; epitope peptide) [compound 677]	2372	731	–
449 (SLNTEVETPIRNEWGCRCNDSSD; epitope peptide) [compound 449]	1908	1333	–
309 (CSLLTEVGMSLLCEV; epitope peptide) [compound 309]	–	1891	2734

Substance	Signal (peptides that show specific binding to Z3G1) [1]	Signal (peptides that bind to 23K21 and 8I10) (HuM2e antibody 23K12)	Signal (peptides that bind to Z3G1) [1]
546 (SLLTEVETPIRNRWGCRCNDSSD; epitope peptide) [compound 546]	2257	921	–
695 (SLLTEVEVPIRNEWGCRCNDSSD; epitope peptide) [compound 695]	2286	719	–
638 (SLLTEVETPIRNEWGTRCNDSSD; epitope peptide) [compound 638]	2404	767	–
583 (SLLTEVWTPIRNEWGCRCNDSSD; epitope peptide) [compound 583]	1889	855	–
698 (SLLTEVETPIRDEWGCRCNDSSD; epitope peptide) [compound 698]	2187	716	–
653 (SLLTEVETIIRNEWGCRCNDSSD; epitope peptide) [compound 653]	2096	756	–
352 (SLQTEVETPIRNEWGCRCNDSSD; epitope peptide) [compound 352]	2025	1561	–
720 (SLLTEVETPIINEWGCRCNDSSD; epitope peptide) [compound 720]	2262	699	–
654 (SLLTEVETPIRYEWGCRCNDSSD; epitope peptide) [compound 654]	2202	755	–
595 (SLLTEVETPIRNEWGWRCNDSSD; epitope peptide) [compound 595]	2439	838	–
425 (SLLTEVETPIRNEWGCRCNDSKD; epitope peptide) [compound 425]	–	770	2361
444 (SLLTEVETPIRNEWGCRC; epitope peptide) [compound 444]	–	898	2478
412 (SLLTEVETPIRNEWGCRCNDNSD; epitope peptide) [compound 412]	–	708	2389
363 (MSLLTECGCSLLTEV; epitope peptide) [compound 363]	–	1500	1235
420 (SLLTEVETPIRNEWGCRCNDSCD; epitope peptide) [compound 420]	–	725	2269
423 (SLLTEVETPIRNEWGCRCNDSHD; epitope peptide) [compound 423]	–	782	2353
617 (SLLTEVETPIRNSWGCRCNDSSD; epitope peptide) [compound 617]	2300	807	–
620 (SLLTEVETPIRFEWGCRCNDSSD; epitope peptide) [compound 620]	2364	806	–
428 (SLLTEVETPIRNEWGCRCNDSPD; epitope peptide) [compound 428]	–	772	2344

Substance	Signal (peptides that show specific binding to Z3G1) [1]	Signal (peptides that bind to 23K21 and 8I10) (HuM2e antibody 23K12)	Signal (peptides that bind to Z3G1) [1]
394 (SLLTEVETPIRNEWGCRCNMSSD; epitope peptide) [compound 394]	–	1133	2574
532 (MSCLTEVGMSLLTEV; epitope peptide) [compound 532]	–	968	2336
385 (CSLLTEVGCLCTCV; epitope peptide) [compound 385]	2474	1375	–
671 (SLLTEVETPIRNEPGCRCNDSSD; epitope peptide) [compound 671]	2279	735	–
664 (SLLTEVETPIRNEWGNRCNDSSD; epitope peptide) [compound 664]	2328	746	–
629 (SLLTEVMTPIRNEWGCRCNDSSD; epitope peptide) [compound 629]	2331	783	–
573 (SLLTEVETPIRNEWGCRTNDSSD; epitope peptide) [compound 573]	2374	867	–
426 (SLLTEVETPIRNEWGCRCNDSLD; epitope peptide) [compound 426]	–	779	2400
588 (SLLTEVETPIRNEWGCRCNCSSD; epitope peptide) [compound 588]	–	848	2505
408 (SLLTEVETPIRNEWGCRCNDISD; epitope peptide) [compound 408]	–	962	2527
364 (CSLLTEVGCSLLTEV; epitope peptide) [compound 364]	–	1499	2503
525 (SLLTEVGCSCLCEV; epitope peptide) [compound 525]	1829	996	–
513 (MCLLTEVGMSLLTEV; epitope peptide) [compound 513]	–	1032	2697
710 (SLLTEVETPIRREWGCRCNDSSD; epitope peptide) [compound 710]	2278	707	–
632 (SLLTEVETPIRNEWGCRCVDSSD; epitope peptide) [compound 632]	–	775	2366
610 (SLLTEVETDIRNEWGCRCNDSSD; epitope peptide) [compound 610]	2392	813	–
626 (SLLTEVETPIRNEWGCRCYDSSD; epitope peptide) [compound 626]	–	791	2385
285 (MSLLTEVGMSLLTCV; epitope peptide) [compound 285]	–	2389	2872
443 (SLLTEVETPIRNEWGCR; epitope peptide) [compound 443]	–	864	2444
